Results published in patent US8354381B2, “Peptide compositions for oral care systems” (E I du Pont de Nemours and Company, priority 2009, dated 2013).
Where no end group is shown, it is not given here. The star is where a group is joined. Biotin = O=C1N[C@H]2[C@H](CS[C@H]2CCCCC(=O)*)N1

Test system: pellicle-coated HAP disks
Experiment: Phage ELISA on pellicle-coated HAP disks
Assay type: binding, human
Conditions: over 10^10 pfu phage, A450
Excerpt: A total of 20 selected phage candidates (Example 1) were used in a phage ELISA experiment. Purified phage lysates were used for binding to pellicle-coated HAP disks using an anti-M13 phage antibody conjugated to horseradish-peroxidase, followed by the addition of chromogenic agent TMB (3,3′,5,5′-tetramethylbenzidine), obtained from Pierce Biotechnology (Item #34021; Rockford, Ill.). The plates were read at A450 nm.
For each phage candidate to be tested, the pellicle-coated HAP disks (3 mm diameter) was incubated for 1 h at room temperature with 200 μL of blocking buffer, consisting of 2% non-fat dry milk (Schleicher & Schuell, Inc.) in TBS. […] The tube was rinsed 6 times with wash buffer consisting of TBST-0.05%. The wells were filled with 200 μL of TBST-0.5% containing 1 mg/mL BSA (bovine serum albumin) and then 10 μL (over 10^10 pfu) of purified phage stock was added. The samples were incubated at room temperature for 60 min with slow shaking. The non-binding phage were removed by washing 6 times with TBST-0.5%. […] The conjugate solution was removed and was washed 6 times with TBST-0.5%.

Row | Substance | O.D.450
1 | DLCSMQMMNTGCHY (Synthetic oral-surface binding peptide) [Pell 5] | 0.83
2 | GNTDTTPPNAVMEPTVQHKW (Synthetic oral-surface binding peptide) [Pell 9] | 0.755
3 | NPTDSTHMMHARNHE (Synthetic oral-surface binding peptide) [Pell 16] | 0.578
4 | ASVSNYPPIHHLATSNTTVN (Synthetic oral-surface binding peptide) [Pell 2] | 0.75
5 | AHPESLGIKYALDGNSDPHA (Synthetic oral-surface binding peptide) [Pell 1] | 0.739
6 | NPTDHIPANSTNSRVSKGNT (Synthetic oral-surface binding peptide) [Pell 15] | 0.567
7 | NNTWPEGAGHTMPSTNIRQA (Synthetic oral-surface binding peptide) [Pell 13] | 0.598
8 | NPTATPHMKDPMHSNAHSSA (Synthetic oral-surface binding peptide) [Pell 14] | 0.7
9 | NGPDMVQSVGKHKNS (Synthetic oral-surface binding peptide) [Pell 10] | 0.729
10 | QHCITERLHPPCTK (Synthetic oral-surface binding peptide) [Pell 17] | 0.614
11 | EPTHPTMRAQMHQSLRSSSP (Synthetic oral-surface binding peptide) [Pell 8] | 0.712
12 | TPCATYPHFSGCRA (Synthetic oral-surface binding peptide) [Pell 19] | 0.731
13 | DLCSSPSTWGSCIR (Synthetic oral-surface binding peptide) [Pell 6] | 0.735
14 | NGPEVRQIPANFEKL (Synthetic oral-surface binding peptide) [Pell 11] | 0.607
15 | WCTDFCTRSTPTSTSRSTTS (Synthetic oral-surface binding peptide) [Pell 20] | 0.715
16 | DPNESNYENATTVSQPTRHL (Synthetic oral-surface binding peptide) [Pell 7] | 0.831
17 | DECMEPLNAAHCWR (Synthetic oral-surface binding peptide) [Pell 3] | 0.49
18 | DECMHGSDVEFCTS (Synthetic oral-surface binding peptide) [Pell 4] | 0.664
19 | TPCAPASFNPHCSR (Synthetic oral-surface binding peptide) [Pell 18] | 0.416
20 | NNTSADNPPETDSKHHLSMS (Synthetic oral-surface binding peptide) [Pell 12] | 0.521

Test system: pellicle coated bovine enamel
Experiment: Phage ELISA on pellicle coated bovine enamel (Example 6)
Assay type: binding, human
Conditions: 10^11 pfu phage, 30 min in vivo pellicle on bovine enamel, normalized to an internal control
Procedure: A total of 29 selected phage candidates from Table 5 were used in phage ELISA Experiment to determine binding affinity and coverage of each phage on pellicle substrates. Purified phage lysates were used for binding to pellicle coated bovine enamel using an anti-M13 phage antibody conjugated to horseradish-peroxidase, followed by the addition of chromogenic agent TMB. The plates were read at A450 nm.
The wells were filled with 1 mL of 10^11 pfu purified phage stock which was prepared by diluting in blocking buffer. […] The non-binding phage was removed by washing 5 times with PBST. […] The conjugate solution was removed and was washed 3 times with PBST.

Row | Substance | O.D.450 (normalized)
21 | FDGIGLGTATRHQNR (Synthetic oral-surface binding peptide) [DenP12] | 2.079
22 | TNDLHANPFTGTYIAPDPTS (Synthetic oral-surface binding peptide) [DenP30] | 1.082
23 | SEARARTFNDHTTPMPII (Synthetic oral-surface binding peptide) [DenP14] | 2.498
24 | HKNENIMQYNVNDRWHITPA (Synthetic oral-surface binding peptide) [DenP32] | 1.441
25 | NGNNHTDIPNRSSYTGGSFA (Synthetic oral-surface binding peptide) [DenP1] | 1.002
26 | HDPNHLTHQARTIYRNANHT (Synthetic oral-surface binding peptide) [DenP23] | 1.236
27 | TYQGVPSWPAVIDDAIRR (Synthetic oral-surface binding peptide) [DenP19] | 1.052
28 | DHNNRQHAVEVRENKTHTAR (Synthetic oral-surface binding peptide) [DenP21] | 0.728
29 | APPTYQTASYPHNLPSKRKM (Synthetic oral-surface binding peptide) [DenP28] | 1.203
30 | GMPTRYYHNTPPHLTPKF (Synthetic oral-surface binding peptide) [DenP8] | 1.182
31 | TTGSSSQADTSASMSIVPAH (Synthetic oral-surface binding peptide) [DenP17] | 0.971
32 | ELDHDSRHYMNGLQRKVT (Synthetic oral-surface binding peptide) [DenP15] | 1.112
33 | VNPNWVETQALHQPPGNT (Synthetic oral-surface binding peptide) [DenP20] | 1.298
34 | QAAQVHMMQHSRPTT (Synthetic oral-surface binding peptide) [DenP13] | 0.845
35 | HKNAIQPVNDATTLDTTM (Synthetic oral-surface binding peptide) [DenP9] | 1.364
36 | GPQHVLMQDTHQGYAFDN (Synthetic oral-surface binding peptide) [DenP16] | 2.190
37 | YLLPKDQTTAPQVTPIVQHK (Synthetic oral-surface binding peptide) [DenP5] | 1.087
38 | DLGTFPNRTLKMAAH (Synthetic oral-surface binding peptide) [DenP11] | 1.663
39 | EFPYYNDNPPNPERHTLR (Synthetic oral-surface binding peptide) [DenP7] | 1.500
40 | SNATMYNIQSHSHHQ (Synthetic oral-surface binding peptide) [DenP24] | 0.979
41 | IPWWNIRAPLNAGGG [Control, reference compound] | 1.000
42 | QVPDYLSPTHQKKAFLEIPT (Synthetic oral-surface binding peptide) [DenP29] | 0.976
43 | IYPNESMSTSNVRGPYHP (Synthetic oral-surface binding peptide) [DenP22] | 1.420
44 | ANELSTYAQTNPGSG (Synthetic oral-surface binding peptide) [DenP25] | 0.909
45 | KAPIANMLQPHSYQYSVA (Synthetic oral-surface binding peptide) [DenP18] | 1.143
46 | TMTNHVYNSYTEKHSSTHRS (Synthetic oral-surface binding peptide) [DenP2] | 1.951
47 | VEPATKNMREARSSTQMRRI (Synthetic oral-surface binding peptide) [DenP4] | 1.421
48 | AVVPADLNDHANHLS (Synthetic oral-surface binding peptide) [DenP10] | 1.619
49 | DTIHPNKMKSPSSPL (Synthetic oral-surface binding peptide) [DenP26] | 1.039

Test system: pellicle coated enamel substrates
Experiment: not given
Conditions: 20 μM biotinylated peptide, streptavidin-HRP, normalized to DenP03, three replicates
Procedure: A total of 20 synthetic peptides were manufactured using sequences obtained from Table 6. Peptides were obtained from SynBioSci Corp. (Livermore, Calif.) and included an additional sequence (SSRP; SEQ ID NO: 118) at the N-terminus and biotin labeled lysine at the C-terminus.
Enamel substrates were cut into approximately 7 mm squares and mounted on wax mounting for incubation in the mouth for 30 min to form a pellicle coated surface. The pellicle coated enamel substrates were removed from the wax backing and placed in well plates with the pellicle surface exposed as in Example 5. Each pellicle coated substrate was incubated for 1 h at room temperature (˜22° C.) with 1 mL of blocking buffer, consisting of 1 mg/mL BSA in PBST (Pierce BUPH™ #28372 with 0.1% TWEEN® 20). The blocking buffer was removed by aspirating the liquid out of each well. The tube was rinsed 2 times with wash buffer consisting of PBST. The wells were filled with 500 μL of 20 μM peptide solution which was prepared by diluting in blocking buffer. The samples were incubated for 30 min with slow shaking at 37° C. The non-binding peptide was removed by washing 6 times with PBST. Then, 500 μL of horseradish peroxidase/streptavidin conjugate (Pierce #22127), diluted 1:2000 in PBST, was added and incubated for 1 h at room temperature (˜22° C.). The conjugate solution was removed and was washed 4 times with PBST.
Each enamel substrate was removed from the well and washed again in a 15-mL test tube with 10 mL of PBST. Each enamel substrate was then mounted in a clean well plate with only the enamel surface exposed. A 1:1 solution of TMB substrate and H2O2 (200 μL) was added to each well and the color was allowed to develop for between 10 to 20 min, typically for 15 min, at room temperature (˜22° C.). Then, 100 μL of solution from each well was transferred to a 96 well reading plate containing stop solution (100 μL of 2 M H2SO4) in each well. The A450 was measured using a microplate spectrophotometer (Molecular Devices, Sunnyvale, Calif.). […] Each sequence was tested with three replicate enamel coated pellicle substrates.

Row | Substance | O.D.450 (normalized)
50 | SSRPTYQGVPSWPAVIDDAIRRK(Biotin) [DenP19-A] | 0.712
51 | SSRPDLGTFPNRTLKMAAHK(Biotin) [DenP11-A] | 0.454
52 | SSRPEFPYYNDNPPNPERHTLRK(Biotin) [DenP7-A] | 0.356
53 | SSRPNGNNHTDIPNRSSYTGGSFAK(Biotin) [DenP1-A] | 0.154
54 | SSRPSEARARTFNDHTTPMPIIK(Biotin) [DenP14-A] | 0.269
55 | SSRPTMTNHVYNSYTEKHSSTHRSK(Biotin) [DenP2-A] | 0.273
56 | SSRPIYPNESMSTSNVRGPYHPK(Biotin) [DenP22-A] | 0.354
57 | SSRPGPQHVLMQDTHQGYAFDNK(Biotin) [DenP16-A] | 0.309
58 | SSRPELDHDSRHYMNGLQRKVTK(Biotin) [DenP15-A] | 0.460
